Assays:
black nightshade = experiment: greenhouse post-emergence herbicidal test; assay type: in vivo, Solanum nigrum; details: application rates of 0.25 or 0.125 kg/ha
Description: (§1) The seeds of the test plants were sown separately for each species. For the post-emergence treatment, the test plants were first grown to a height of 3 to 15 cm, depending on the plant habit, and only then treated with the active compounds which had been suspended or emulsified in water. The test plants were for this purpose either sown directly and grown in the same containers, or they were first grown separately as seedlings and transplanted into the test containers a few days prior to treatment. The application rate for the post-emergence treatment was 0.25, 0.125 or 0.0625 kg of a.s. (active substance)/ha. Depending on the species, the plants were kept at 10-25° C. or […] The test period extended over 2 to 4 weeks. During this time, the plants were tended, and their response to the individual treatments was evaluated. The evaluation was carried out using a scale from 0 to 100. 100 means no emergence of the plants, or complete destruction of at least the aerial parts and 0 means no damage, or normal course of growth. The plants used in the greenhouse experiments were of the following species: [table]

lamb's-quarters = experiment: greenhouse post-emergence herbicidal test; assay type: in vivo, Chenopodium album; details: application rates of 0.25 or 0.125 kg/ha
Description: as §1

barnyard grass = experiment: greenhouse post-emergence herbicidal test; assay type: in vivo, Echinochloa crus-galli; details: application rates of 0.25 or 0.125 kg/ha
Description: as §1

green foxtail = experiment: greenhouse post-emergence herbicidal test; assay type: in vivo, Setaria eiridis; details: application rates of 0.25 or 0.125 kg/ha
Description: as §1

lady's-thumb = experiment: greenhouse post-emergence herbicidal test; assay type: in vivo, Polygonum persicaria; details: application rates of 0.25 or 0.125 kg/ha
Description: as §1

Structure (SMILES) | melting point | also measured
CC(C)(C)n1ncc(C(=O)c2ccc(S(C)(=O)=O)c(C3=NOCC3)c2Cl)c1O [Compound 2.1, 4-[2-Chloro-3-(4,5-dihydroisoxazol-3-yl)-4-methylsulfonylbenzoyl]-5-hydroxy-1-(1,1-dimethyl-1-ethyl)-1H-pyrazole] | 198 to 200 °C | 
CC(C)n1ncc(C(=O)c2ccc(S(C)(=O)=O)c(C3=NOCC3)c2Cl)c1O [Compound 2.2] | 210 to 215 °C | post-emergence herbicidal action against black nightshade (black nightshade): very good post-emergence action; post-emergence herbicidal action against lamb's-quarters (lamb's-quarters): very good post-emergence action; post-emergence herbicidal action against barnyard grass (barnyard grass): very good post-emergence action; post-emergence herbicidal action against green foxtail (green foxtail): very good post-emergence action; post-emergence herbicidal action against lady's-thumb (lady's-thumb): very good post-emergence action
CC(C)Oc1c(C(=O)c2ccc(S(C)(=O)=O)c(C3=NOCC3)c2Cl)cnn1C(C)C [Compound 2.3] | 175 to 180 °C | 
CCOc1c(C(=O)c2ccc(S(C)(=O)=O)c(C3=NOCC3)c2Cl)cnn1C(C)C [Compound 2.4] | 150 to 155 °C | 
COc1c(C(=O)c2ccc(S(C)(=O)=O)c(C3=NOCC3)c2Cl)cnn1C(C)C [Compound 2.5] | 185 to 190 °C | 
CC(C)C(C)n1ncc(C(=O)c2ccc(S(C)(=O)=O)c(C3=NOCC3)c2Cl)c1O (stereo not drawn) [Compound 2.9] | 150 to 155 °C | 

Now from value to compound, other results behind:

melting point | Structure (SMILES) | also measured
125 to 130 °C | CC(C)Oc1c(C(=O)c2ccc(S(C)(=O)=O)c(C3=NOCC3)c2Cl)cnn1C(C)C(C)C (stereo not drawn) [Compound 2.10] | 
154 to 156 °C | COc1c(C(=O)c2cnn(C(C)C)c2O)ccc(S(C)(=O)=O)c1C1=NOCC1 [Compound 2.13] | 
200 to 205 °C | CC(C)C(C(C)C)n1ncc(C(=O)c2ccc(S(C)(=O)=O)c(C3=NOCC3)c2Cl)c1O [Compound 2.15] | 
65 to 70 °C | COc1c(C(=O)c2ccc(S(C)(=O)=O)c(C3=NOCC3)c2Cl)cnn1C(C(C)C)C(C)C [Compound 2.16] | 
